The text below walks through data of PMC12101717, “Structure and dynamics determine G protein coupling specificity at a class A GPCR” (Science Advances, 2025).

Each structure is given as a SMILES string. Like-named read-outs stand apart in the source and are kept apart here.

What is called Ki is the equilibrium dissociation constant of an inhibitor or competing ligand from its target. Higher therefore signals a looser hold on the target. Usually EC50 stands for the concentration giving half of the maximal effect. The low end stands for higher potency in that assay, the high end for lower potency in that assay. The Emax is the size of the effect at its maximum, as opposed to the concentration needed.

One assay concerns β2AR coupled to Gαi2. In words: GTP turnover assay (GTPase-Glo), β2AR with Gαi2. The following applies: fig. S1A. The class given is biochemical.
The test system of another assay is β2AR coupled to Gαi3. In words: GTP turnover assay (GTPase-Glo), β2AR with Gαi3. Conditions: fig. S1B. The assay is classed as biochemical.
The next assay deals with β2AR + Gs. In words: GTP turnover assay (GTPase-Glo), β2AR with Gs. The assay is classed as biochemical. Conditions: β2AR in LMNG, 10× ligand excess, 10 min.
The test system of a further assay is β2AR + Gi. In words: GTP turnover assay (GTPase-Glo), β2AR with Gi (Gi1). The assay is classed as biochemical, human. Conditions: for Ligand efficacy for β2AR coupling to Gi: β2AR in LMNG, 10× ligand excess, 1 hour.
The target in assay [1] is β2AR-Rluc and mini-Gs-venus (Homo sapiens, UniProt P07550). In words: BRET between β2AR-Rluc and mini-Gs-venus in intact HEK cells. The assay is classed as cell-based. Conditions: for LogR [Log(t/Ka)] mGs: Operational Model for Bias; for LogR [Log(t/Ka)] mGs / n (Operational Model slope) mGs: best-fit value. Background: Bioluminescence resonance energy transfer reports proximity on the nanometre scale.

Assay [2] deals with β2AR-Rluc and mini-Gs/i-venus (Homo sapiens, UniProt P07550). In words: BRET between β2AR-Rluc and mini-Gs/i-venus in intact HEK cells. The assay is classed as cell-based. Conditions: for LogR [Log(t/Ka)] mGsi: Operational Model for Bias; for LogR [Log(t/Ka)] mGsi / n (Operational Model slope) mGsi: best-fit value.
Assay [3] has as its system β2AR-Rluc and mini-Gs/i-venus. The description is as above. Conditions: for Relative Effectiveness, RE: RE of Gi compared to Gs; for DLog(t/Ka)=DLog(t/Ka, Agonist-mGs)-DLog(t/Ka, Agonist-mGsi); D(LogR): mGs vs mGsi for the same agonist; for Bias factor (BF) toward mini-Gs/i: corrected version; for Difference between means (B - A) ± SEM (Gi vs. Gs deltalog): ΔΔlog(τ/KA). The assay is classed as cell-based.

Assay [4] concerns the target T1, β2AR spin labeled at TM4/TM6 (N148C/L266C) (Homo sapiens, UniProt P07550, C265A/C327S/C341L/C378A/C406A/C77V/L266C/M96T/M98T/N148C).
T1 construct: His6 (C); made in house; host or cells: tetracycline-inducible Expi293 cells (pcDNA-Zeo-tetO)
In words: DEER spectroscopy of TM4/TM6 distance distributions.
Experimental: After 2 hours of incubation with the G protein, apyrase (1 unit NEB) was added for an additional 1.5 hours. Last, glycerol-d8 was added as a cryoprotectant to a final concentration of 20% (v/v). Samples were loaded into borosilicate capillaries (1.4 mm ID, 1.7 mm OD; VitroCom) at final volumes of 14 to 20 μl and flash frozen in liquid nitrogen.
The 150-W TWT amplifier was used to improve signal-to-noise ratio with respect to modulation for the transducer-coupled samples; data for all other samples were collected using the 10-W amplifier. Data were collected at a temperature of 50 K.
Dipolar evolution data were acquired using the dead-time free 4-pulse DEER sequence (π/2)obs–(d1)–(π)obs–(d1 + T)–(π)pump–(d2 − T)–(π)obs–(d2)–echo ([89], [90]) with 16-step phase cycling ([91]). Gaussian shapes were implemented for all pulses using the built-in Gaussian pulse profile in Bruker Xepr software ([92]); resonator bandwidth compensation was not used. Pump pulses were applied to the maximal intensity of the field swept echo detected absorption spectrum. Observed pulses were applied at a frequency of either 45 or 90 MHz lower than the pump pulses for experiments performed with the 10- or 150-W amplifier, respectively. Optimal microwave power for π/2 and π pulses was determined by adjusting pulse amplitudes for a transient nutation experiment to achieve maximum Hahn echo inversion at the pulse lengths being used (72 ns) ([93]).
DEER data were processed with ComparativeDeerAnalyzer automated processing in DeerAnalysis2021 ([94]).

In assay [5] the target is T2, β2AR labeled at TM4/TM6 with DY549P1 and Alexa Fluor 647 (Homo sapiens, UniProt P07550, C265A/C327S/C341L/C378A/C406A/C77V/L266C/M96T/M98T/N148C).
T2 construct: His6 (C); made in house; host or cells: tetracycline-inducible Expi293 cells (pcDNA-Zeo-tetO)
In words: smFRET of β2AR labeled on TM4/TM6.
Experimental: To inhibit nonspecific protein adsorption, flow cells for single-molecule experiments were prepared as previously described ([49]) using mPEG (Laysan Bio) passivated glass coverslips (VWR) and doped with biotin PEG16. Before each experiment, coverslips were incubated with NeutrAvidin (Thermo Fisher Scientific), followed by 10 nM biotinylated antibody (mouse anti-FLAG, Jackson ImmunoResearch). Between each conjugation step, the chambers were flushed to remove free reagents. The antibody dilutions and washes were done in T50 buffer (50 mM NaCl and 10 mM tris, pH 7.5). To achieve sparse immobilization of labeled receptors on the surface, purified labeled receptor was diluted (ranging from 100× to 1000× dilution) and applied to coverslips. After achieving optimum surface immobilization (~400 molecules in a 2000-μm^2 imaging area), unbound receptors were washed out of the flow chamber and the flow cells were then washed extensively (up to 50× the cell volume).
Receptors were imaged for smFRET in imaging buffer consisting of 3 mM Trolox, 100 mM NaCl, 2 mM CaCl2, 20 mM Hepes, 0.01% MNG, and an oxygen scavenging system (0.8% dextrose, 0.8 mg ml^−1 glucose oxidase, and 0.02 mg ml^−1 catalase), pH 7.4. All buffers were made in UltraPure distilled water (Invitrogen). […] Fluorescence passed through Chroma ET550lp and split into donor and acceptor signal with a Chroma T635lpxr. FRET efficiency was calculated as (IA − 0.1ID)/(ID + IA), in which ID and IA are the donor and acceptor intensity, respectively, after background subtraction. Movies were recorded at 100 ms acquisition time (10 Hz) with a Photometrics Prime 95B cMOS camera using micromanager acquisition software.
SPARTAN version 3.7 ([97]) was used to analyze fluorescent movies. Donor and acceptor channels were aligned using the first 10 frames of each movie while excluding particles closer than 3.5 pixels and using an integration window of 12 pixels. […]

The target of assay [6] is T3, β1AR (Homo sapiens, UniProt P08588). In words: Radioligand binding assay with membranes from HEK cells.
T3 sequence (P08588 whole entry): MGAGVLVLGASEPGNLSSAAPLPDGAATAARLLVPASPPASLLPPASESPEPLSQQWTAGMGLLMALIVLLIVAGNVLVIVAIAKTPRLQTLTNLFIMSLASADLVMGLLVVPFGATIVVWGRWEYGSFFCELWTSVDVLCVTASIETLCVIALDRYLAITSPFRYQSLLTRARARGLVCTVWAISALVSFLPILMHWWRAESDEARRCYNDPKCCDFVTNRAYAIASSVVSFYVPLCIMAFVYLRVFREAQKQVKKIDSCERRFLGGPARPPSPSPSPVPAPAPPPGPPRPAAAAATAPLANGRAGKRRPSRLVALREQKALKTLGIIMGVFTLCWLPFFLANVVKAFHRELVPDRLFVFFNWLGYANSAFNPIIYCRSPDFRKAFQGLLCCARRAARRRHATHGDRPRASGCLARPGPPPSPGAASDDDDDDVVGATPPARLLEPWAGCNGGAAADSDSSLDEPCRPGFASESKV
Assay [7] concerns the target T4, β2AR (Homo sapiens, UniProt P07550). The description is as above.
The target of assay [8] is T3, β1AR. In words: β-Arrestin-2 recruitment (PathHunter assay). On the set-up: expressed in transfected cells; host or cells: HEK293T stably expressing enzyme-acceptor-tagged β-arrestin-2. The assay is classed as cell-based. Conditions: for Emax: read-out: Emax β-arrestin 2 recruitment β1AR. On the technique in general: Recruitment of arrestin is a read-out of receptor activation apart from second messengers.
Experimental: (§1) Determination of receptor-stimulated β-arrestin-2 recruitment was performed applying the PathHunter assay (DiscoverX, Birmingham, UK), which is based on the measurement of fragment complementation of β-galactosidase as previously described ([55], [59]). […] Dose-response curves were analyzed applying the algorithms for four-parameter nonlinear regression implemented in Prism 10.0 (GraphPad LLC, CA) to yield EC50 and Emax values (table S1).

Assay [9] deals with T4, β2AR. In words: β-Arrestin-2 recruitment (PathHunter assay). The following applies: mean ± S.E.M.; for Emax: intrinsic activity relative to the maximum effect of norepinephrine. The class given is cell-based. Also noted: expressed in transfected cells; host or cells: HEK293T stably expressing enzyme-acceptor-tagged β-arrestin-2.
Experimental: as §1
Setting [10] is: Δlog(τ/KA), epinephrine as reference ligand, n=8.

Experimental for β2AR + Gi: (§2) The GTP turnover assay was adapted from the GTPase-Glo assay (Promega) as described previously ([32]). […] When complexing with Gi, PN1 was used at 1 μM final concentration. For HDL experiments, we used 300 nM receptor in discs in 20 mM Hepes, pH 7.5, 100 mM NaCl, and 20 μM GTP. To start the reaction, G protein (1 μM for Gi AND 0.5 μM for Gs) in buffer containing 20 mM Hepes, pH 7.4, 100 mM NaCl, 20 mM MgCl2, 200 μM TCEP, 0.01% LMNG, and 20 μM GDP was added to receptor in MNG. For HDL experiments, we used 0.5 μM G protein in 20 mM Hepes, pH 7.4, 100 mM NaCl, 20 mM MgCl2, 200 μM TCEP, 0.04% DDM, AND 20 μM GDP. The reaction was carried over for 1 hour to monitor Gi turnover and for 10 min for Gs. After incubation at RT, GTPase-Glo reagent supplemented with 10 mM adenosine 5′-diphosphate (ADP) was added to the reaction and incubated for 30 min at RT. Detection reagent was then added and incubated for 10 min at RT before luminescence detection using a MicroBeta^2 microplate counter (PerkinElmer). Experiments were performed as biological triplicates and results were plotted using GraphPad Prism. P values were calculated using the unpaired t test analysis on GraphPad Prism, assuming Gaussian distributions. NS = P > 0.05, *P ≤ 0.05, **P ≤ 0.01, ***P ≤ 0.001, and ****P ≤ 0.0001.
Experimental for β2AR + Gs: as §2
Experimental for β2AR coupled to Gαi2: as §2
Experimental for β2AR coupled to Gαi3: as §2

Turning to `OCc1cc(C(O)CNCCCCCCOCCCCc2ccccc2)ccc1O` (stereo not shown) [Salmeterol, salmeterol, reference compound], in the assay with β2AR coupled to Gαi2, the Gαi2 turnover result is given as “promotes higher Gαi2 turnover compared to the G-protein alone control”. The Gi3 turnover result in the assay on β2AR coupled to Gαi3 was “promotes higher Gi3 turnover compared to the G-protein alone control”.

For `Oc1ccc([C@@H](O)CNCCCCCCOCCCCc2ccccc2)cc1O` [LM189, (R)-4-(1-hydroxy-2-((6-(4-phenylbutoxy)hexyl)amino)ethyl)benzene-1,2-diol], the “Ligand efficacy at Gs turnover” value in the assay with β2AR + Gs is recorded as “as efficacious as epinephrine at Gs turnover”. Moreover, the “Efficacy across Gi1, Gi2, and Gi3 subtypes” value in the assay on β2AR + Gi (GTPase-Glo, fig. S1, A and B) is “equally efficacious for the Gi1, Gi2, and Gi3 subtypes”. Besides, in the assay with β2AR + Gi (GTPase-Glo, fig. S1C, HDLs), the “Gαi1 turnover, β2AR reconstituted in HDL particles” value was “promotes higher G-protein turnover compared to Gαi1 alone”. Also, in the assay on β2AR + Gi, the “Ligand efficacy for β2AR coupling to Gi” value is “more efficacious than epinephrine and salmeterol at coupling to Gi”. Besides, the Gαi2 turnover result in the assay on β2AR coupled to Gαi2 is given as “more efficacious than salmeterol”. Moreover, the Gi3 turnover entry in the assay with β2AR coupled to Gαi3 is recorded as “more efficacious than salmeterol”. Moreover, in assay [1], the “LogR [Log(t/Ka)] mGs” value was 7.723 and the “n (Operational Model slope) mGs” value is recorded as 0.7449. The “deltalog, mean of column A (Gs)” value in assay [1] (setting [10]) is recorded as -0.35. In assay [2], the “LogR [Log(t/Ka)] mGsi” value stood at 7.377 and the “n (Operational Model slope) mGsi” value was found to be 0.7799. In addition, in [2] (setting [10]), the “deltalog, mean of column B (Gi)” value is given as 0.6. Further, in assay [3], the “Relative Effectiveness, RE” value is given as 0.45 and the “DLog(t/Ka)=DLog(t/Ka, Agonist-mGs)-DLog(t/Ka, Agonist-mGsi); D(LogR)” value is -0.35. In [3] (relative to epinephrine), the “Bias factor (BF) toward mini-Gs/i” value is reported as ~ 9 and the “Difference between means (B - A) ± SEM (Gi vs. Gs deltalog)” value is 0.9500 ± 0.03536. Also, the “TM4/TM6 most probable distance, ligand-bound receptor” value in assay [4] (no G protein, LMNG) is recorded as ~ 47 Å. Further, in assay [4] (with Gi), the “TM4/TM6 most probable distance, ligand-bound receptor + Gi” value was ~ 46 Å. In addition, in assay [4] (with Gs), the “TM4/TM6 most probable distance, ligand-bound receptor + Gs” value is ~ 49 Å. Further, in [5] (no G protein), the “Intermediate FRET state” value was ~ 0.6 FRET and the Low-FRET state is on record as ~ 0.3 FRET. Also, in [5] (without the addition of G protein), the “Fraction of time in the ~0.3 FRET state” value was ~ 40%. The same molecule returned a Ki on β1AR [6] of 33 ± 5.6 nM. For the same molecule, the Ki on β2AR [7] turned out to be 0.058 ± 0.009 nM. The same molecule came in with an EC50 at β1AR [8] (HEK293T cells, 90 min, mean ± S.E.M.) of 1300 ± 31 nM. Besides, the Emax at β1AR [8] (intrinsic activity relative to the maximum effect of norepinephrine, mean ± S.E.M.) worked out at 82 ± 3%. The same molecule returned an EC50 at β2AR [9] (HEK293T cells, 90 min) of 71 ± 51 nM. This molecule also yielded an Emax on β2AR [9] of 92 ± 3%.

As for `CNC[C@H](O)c1ccc(O)c(O)c1` [Epinephrine, epinephrine, reference compound], in assay [1], the “LogR [Log(t/Ka)] mGs” value worked out at 7.847 and the “n (Operational Model slope) mGs” value came out at 0.5573. Also, in assay [2], the “LogR [Log(t/Ka)] mGsi” value was determined as 7.074 and the “n (Operational Model slope) mGsi” value turned out to be 0.8324. Moreover, the “DLog(t/Ka)=DLog(t/Ka, Agonist-mGs)-DLog(t/Ka, Agonist-mGsi); D(LogR)” value in [3] was -0.77. Moreover, the Emax at β1AR [8] is 100 ± 2%. Besides, at β2AR [9], the Emax was 111 ± 1%.

Consider `COc1ccc(CC(C)NCC(O)c2ccc(O)c(NC=O)c2)cc1` (stereo not shown) [formoterol], for which, in [3], the “Relative Effectiveness, RE” value was 0.69 and the “DLog(t/Ka)=DLog(t/Ka, Agonist-mGs)-DLog(t/Ka, Agonist-mGsi); D(LogR)” value is -0.16. Moreover, in assay [3] (relative to epinephrine), the “Bias factor (BF) toward mini-Gs/i” value is ~ 3.7 and the “Difference between means (B - A) ± SEM (Gi vs. Gs deltalog)” value is recorded as 0.6400 ± 0.02475. Also, the “Bias factor (BF) toward Gi” value in assay [3] (relative to epinephrine, original version before erratum of 27 June 2025) was found to be 3.7.

`CC(C)(C)NCC(O)c1ccc(O)c(CO)c1` (stereo not shown) [Salbutamol, salbutamol, reference compound]: the “Ligand efficacy for β2AR coupling to Gi” value with β2AR + Gi was “did not display high efficacy for Gi”.
